Laboratory results: the C3SDB collision cross section collection

Conditions: instrument: TW, calibrated with phosphatidylcholines (ESI+) and phosphatidylethanolamines (ESI-), doubly charged cardiolipins calibrated with poly-DL-…

Compound	collision cross section (N2) ([M-H]-) [Å²]	collision cross section (N2) ([M+2K]2+) [Å²]	collision cross section (N2) ([M-2H]2-) [Å²]	also measured
CCCCCC/C=C\CCCCCCCC(=O)OCC(COP(=O)(O)OCC(O)COP(=O)(O)OCC(COC(=O)CCCCCCCCCCCCCCC)OC(=O)CCCCCCC/C=C\CCCCCC)OC(=O)CCCCCCC/C=C\CCCCCC (configuration not stated) [CL(64:3)]	–	–	397.47	–
CCCCCC/C=C\CCCCCCCC(=O)OCC(COP(=O)(O)OCC(O)COP(=O)(O)OCC(COC(=O)CCCCCCCCCCCCCCC)OC(=O)CCCCCCCC1CC1CCCCCC)OC(=O)CCCCCCC/C=C\CCCCCC (configuration not stated) [CL(65:3)]	–	424.2	400.07	–
CCCCCC/C=C\CCCCCCCC(=O)OCC(COP(=O)(O)OCC(O)COP(=O)(O)OCC(COC(=O)CCCCCCCCCCCCCCC)OC(=O)CCCCCCC/C=C\CCCCCCCC)OC(=O)CCCCCCC/C=C\CCCCCC (configuration not stated) [CL(66:3)]	–	425.7	401.91	–
CCCCCC/C=C\CCCCCCCC(=O)OCC(COP(=O)(O)OCC(O)COP(=O)(O)OCC(COC(=O)CCCCCCC/C=C\CCCCCC)OC(=O)CCCCCCC/C=C\CCCCCCCC)OC(=O)CCCCCCC/C=C\CCCCCC (configuration not stated) [CL(66:4)]	–	–	401.68	–
CCCCCCCC/C=C\CCCCCCCC(=O)OCC(COP(=O)(O)OCC(O)COP(=O)(O)OCC(COC(=O)CCCCCCCCCCCCCCC)OC(=O)CCCCCCC/C=C\CCCCCCCC)OC(=O)CCCCCCCCCCCCCCC (configuration not stated) [CL(68:2)]	–	–	407.34	–
CCCCCC/C=C\CCCCCCCC(=O)OC(COC(=O)CCCCCCC/C=C\CCCCCCCC)COP(=O)(O)OCC(O)COP(=O)(O)OCC(COC(=O)CCCCCCCCCCCCCCC)OC(=O)CCCCCCC/C=C\CCCCCCCC (configuration not stated) [CL(68:3)]	–	–	407.14	–
CCCCCCCCCCCCCC(=O)O[C@H](CO)COP(=O)([O-])OCC[NH3+] [LPE(0:0/14:0)]	198.83	–	–	collision cross section (N2) ([M+H]+): 208.79 Å²; collision cross section (N2) ([M+Na]+): 213.66 Å²
CCCCC1CC1CCCCCCCC(=O)O[C@H](CO)COP(=O)([O-])OCC[NH3+] (some centres not stated) [LPE(0:0/15:1)]	199.81	–	–	–
CCCCCCCCCCCCCCCC(=O)O[C@H](CO)COP(=O)([O-])OCC[NH3+] [LPE(0:0/16:0)]	206.05	–	–	collision cross section (N2) ([M+H]+): 216.39 Å²; collision cross section (N2) ([M+Na]+): 220.61 Å²
CCCCCC/C=C/CCCCCCCC(=O)O[C@H](CO)COP(=O)([O-])OCC[NH3+] [LPE(0:0/16:1)]	203.66	–	–	collision cross section (N2) ([M+H]+): 208.94 Å²; collision cross section (N2) ([M+Na]+): 212.72 Å²

Second part, led by results:

collision cross section (N2) ([M-H]-) [Å²]	collision cross section (N2) ([M+2K]2+) [Å²]	collision cross section (N2) ([M-2H]2-) [Å²]	Compound	also measured
323.73	–	–	CCCCCC/C=C\CCCCCCCC(=O)OC[C@H](COP(=O)(O)OCCNC(=O)CCCCCCCCCCCCCCC)OC(=O)CCCCCCCCCCCCCCCCC [AcylPE(50:1)]	collision cross section (N2) ([M+Na]+): 330.1 Å²
313.72	–	–	CCCCCC/C=C\CCCCCCCC(=O)OC[C@H](COP(=O)(O)OC[C@@H](O)COC(=O)CCCCCCCCCCCCCCC)OC(=O)CCCCCCCCCCCCCC [AcylPG(47:1)]	collision cross section (N2) ([M+Na]+): 326 Å²
322.71	–	–	CCCCCC/C=C\CCCCCCCC(=O)OC[C@H](COP(=O)(O)OC[C@@H](O)COC(=O)CCCCCCCCCCCCCCC)OC(=O)CCCCCCC/C=C\CCCCCCCC [AcylPG(50:2)]	collision cross section (N2) ([M+Na]+): 333.1 Å²
330.34	–	–	CCCCCC/C=C\CCCCCCCC(=O)OC[C@H](COP(=O)(O)OC[C@@H](O)COC(=O)CCCCCCCCCCCCCCC)OC(=O)CCCCCCC/C=C\CCCCCCCCCC [AcylPG(52:2)]	–
328.87	–	–	CCCCCC/C=C\CCCCCCCC(=O)OC[C@H](O)COP(=O)(O)OC[C@@H](COC(=O)CCCCCCC/C=C\CCCCCC)OC(=O)CCCCCCC/C=C/CCCCCCCCCC [AcylPG(52:3)]	–
332.67	–	–	CCCCCC/C=C\CCCCCCCC(=O)OC[C@H](O)COP(=O)(O)OC[C@@H](COC(=O)CCCCCCC/C=C\CCCCCC)OC(=O)CCCCCCCC1CC1CCCCCCCCCC (some centres not stated) [AcylPG(53:3)]	–
–	419.8	–	CCCCCC/C=C\CCCCCCCC(=O)OC(COC(=O)CCCCCCCCCCCCCCC)COP(=O)(O)OCC(O)COP(=O)(O)OCC(COC(=O)CCCCCCCCCCCCC)OC(=O)CCCCCCCCCCCCCCC (configuration not stated) [CL(62:1)]	–
–	418.5	–	CCCCCC/C=C\CCCCCCCC(=O)OC(COC(=O)CCCCCCCCCCCCC)COP(=O)(O)OCC(O)COP(=O)(O)OCC(COC(=O)CCCCCCCCCCCCCCC)OC(=O)CCCCCCC/C=C\CCCCCC (configuration not stated) [CL(62:2)]	–
–	421.5	394.72	CCCCCC/C=C\CCCCCCCC(=O)OC(COC(=O)CCCCCCCCCCCCCCC)COP(=O)(O)OCC(O)COP(=O)(O)OCC(COC(=O)CCCCCCCCCCCCCC)OC(=O)CCCCCCCCCCCCCCC (configuration not stated) [CL(63:1)]	–
–	421	394.34	CCCCCC/C=C\CCCCCCCC(=O)OC(COC(=O)CCCCCCCCCCCCCC)COP(=O)(O)OCC(O)COP(=O)(O)OCC(COC(=O)CCCCCCCCCCCCCCC)OC(=O)CCCCCCC/C=C\CCCCCC (configuration not stated) [CL(63:2)]	–
–	426.8	402.26	CCCCCC/C=C\CCCCCCCC(=O)OC(COC(=O)CCCCCCCCCCCCCCC)COP(=O)(O)OCC(O)COP(=O)(O)OCC(COC(=O)CCCCCCCCCCCCCCC)OC(=O)CCCCCCC/C=C\CCCCCCCC (configuration not stated) [CL(66:2)]	–
–	427.9	404.3	CCCCCCCC/C=C\CCCCCCCC(=O)OC(COC(=O)CCCCCCCCCCCCCCC)COP(=O)(O)OCC(O)COP(=O)(O)OCC(COC(=O)CCCCCCCC1CC1CCCCCC)OC(=O)CCCCCCCCCCCCCCC (configuration not stated) [CL(67:2)]	–
